Measured values from patent US20090170838A1, “Bicycloheteroaryl compounds as P2X7 modulators and uses thereof” (Renovis, Inc., priority 2005, published 2009).

target: T1, P2X7 receptor (Homo sapiens, UniProt Q99572); experiment: IL-1β release assay (BzATP-stimulated, LPS/IFN-γ differentiated THP-1 cells, ELISA); format: cell-based; conditions: at 0.1 μM (asterisk symbols)
T1 construct: host or cells: THP-1 cells differentiated with LPS and IFN-γ
T1 sequence (Q99572 1-595): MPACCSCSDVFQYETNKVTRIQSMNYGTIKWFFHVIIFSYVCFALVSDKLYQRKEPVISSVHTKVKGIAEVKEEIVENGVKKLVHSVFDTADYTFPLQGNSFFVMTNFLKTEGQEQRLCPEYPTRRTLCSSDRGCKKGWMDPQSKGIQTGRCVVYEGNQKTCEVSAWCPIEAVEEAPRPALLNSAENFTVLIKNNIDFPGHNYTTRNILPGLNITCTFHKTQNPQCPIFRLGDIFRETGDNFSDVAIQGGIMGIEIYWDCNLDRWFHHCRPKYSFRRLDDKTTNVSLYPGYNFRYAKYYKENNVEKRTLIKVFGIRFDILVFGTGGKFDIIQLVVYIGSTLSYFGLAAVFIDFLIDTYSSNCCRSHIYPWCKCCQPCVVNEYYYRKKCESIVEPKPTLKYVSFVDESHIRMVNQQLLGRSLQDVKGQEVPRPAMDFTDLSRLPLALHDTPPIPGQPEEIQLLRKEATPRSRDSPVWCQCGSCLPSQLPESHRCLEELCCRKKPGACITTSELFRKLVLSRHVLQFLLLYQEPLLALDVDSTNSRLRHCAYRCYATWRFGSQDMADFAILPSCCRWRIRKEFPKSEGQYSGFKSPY
Experimental: THP-1 cells (ATCC Cat # 285-IF-100) are plated in 96 well plates at a concentration of 200,000 cells per well and allowed to differentiate in RPMI-1640 media (ATCC Cat # 30-2001) containing 10% FBS, 100 IU/mL penicillin, 100 ug/mL streptomycin, 100 ng/mL LPS and 100 ng/mL IFN-γ for 16 hours. Following differentiation, the cells are treated for an additional 2 hours in RPMI-1640 media containing 100 IU/mL penicillin, 100 ug/mL streptomycin and fresh LPS at 100 ng/mL. The cells are then pretreated for 30 minutes with the compound of interest at the appropriate concentration in RPMI media containing 100 IU/mL penicillin, 100 ug/mL streptomycin. Following the pretreatment 2′,3′-O-(4-benzoylbenzoyl)-adenosine 5′-triphosphate (Sigma Aldrich Cat# B6396) is added to a final concentration of 250 uM and the cells incubated for an additional 45 minutes. 30 uL of cell supernatant is then collected and […] levels determined via ELISA (R&D systems Cat. # HSLB50) according to manufacturer's recommendations using the Tecan Safire plate reader. Background adjusted IL-1β levels of drug treated and non-treated cells are used to calculate the percent inhibition.

inhibition at 0.1 µM [%]	SMILES
≥ 75	O=C(CC12CC3CC(CC(C3)C1)C2)Nc1cccc2c(=O)n(CCc3cccnc3)ccc12 [Compound 782]
≥ 75	O=C(CC12CC3CC(CC(C3)C1)C2)Nc1cccc2c1CCN(CCCN1CCCC1)C2=O [Compound 880]
50 to 75	O=C(CC12CC3CC(CC(C3)C1)C2)Nc1cccc2c(=O)n(CCc3ccccn3)ccc12 [Compound 785]
≥ 75	O=C(CC12CC3CC(CC(C3)C1)C2)Nc1cccc2c(=O)n(CCc3ccncc3)ccc12 [Compound 784]
≥ 75	CC12CC3CC(C)(C1)CC(CC(=O)Nc1cccc4c(=O)n(Cc5ccncc5)ccc14)(C3)C2 [Compound 755]
≥ 75	CC12CC3CC(C)(C1)CC(CC(=O)Nc1cccc4c1CCN(CC1CCOCC1)C4=O)(C3)C2 [Compound 813]
≥ 75	O=C(CC12CC3CC(CC(C3)C1)C2)Nc1cccc2c(=O)n(C[C@H]3CCCO3)ccc12 [Compound 771]
≥ 75	O=C(CC12CC3CC(CC(C3)C1)C2)Nc1cccc2c(=O)n(Cc3ccccc3Cl)ccc12 [Compound 793]
25 to 50	CC12CC3CC(C)(C1)CC(CC(=O)Nc1cccc4c1CCN(Cc1ccc(F)cc1F)C4=O)(C3)C2 [Compound 765]
≥ 75	CC12CC3CC(C)(C1)CC(CC(=O)Nc1cccc4c(=O)n(Cc5ccc6c(c5)OCO6)ccc14)(C3)C2 [Compound 821]
50 to 75	CN(C)CCN1CCc2c(NC(=O)CC34CC5CC(CC(C5)C3)C4)cccc2C1=O [Compound 800]
≥ 75	CC12CC3CC(C)(C1)CC(CC(=O)Nc1cccc4c1CCN(Cc1ccc5c(c1)OCO5)C4=O)(C3)C2 [Compound 814]
≥ 75	O=C(CC12CC3CC(CC(C3)C1)C2)Nc1cccc2c1CCN(CCCN1CCOCC1)C2=O [Compound 876]
≥ 75	O=C(CC12CC3CC(CC(C3)C1)C2)Nc1cccc2c1CCN(CCc1c[nH]cn1)C2=O [Compound 802]
≥ 75	CN1CCCC1CCN1CCc2c(NC(=O)CC34CC5CC(CC(C5)C3)C4)cccc2C1=O (stereo not shown) [Compound 879]
≥ 75	O=C(CC12CC3CC(CC(C3)C1)C2)Nc1cccc2c1CCN(Cc1ccc3c(c1)OCCO3)C2=O [Compound 791]
≥ 75	Cc1cc(CN2CCc3c(NC(=O)CC45CC6CC(CC(C6)C4)C5)cccc3C2=O)nn1C [Compound 797]
50 to 75	CC12CC3CC(C)(C1)CC(CC(=O)Nc1cccc4c(=O)n(CCc5ccccn5)ccc14)(C3)C2 [Compound 752]

same assay, conditions: at 0.3 μM (plus symbols)

inhibition at 0.3 µM [%]	SMILES
≥ 75	O=C(CC12CC3CC(CC(C3)C1)C2)Nc1cccc2c(=O)n(CC3COCCO3)ccc12 (stereo not shown) [Compound 724]
≥ 75	CC(c1ccccc1)n1ccc2c(NC(=O)CC34CC5CC(C)(CC(C)(C5)C3)C4)cccc2c1=O (stereo not shown) [Compound 742]
≥ 75	O=C(CC12CC3CC(CC(C3)C1)C2)Nc1cccc2c(=O)n(Cc3c(F)cccc3Cl)ccc12 [Compound 722]
≥ 75	O=C(CC12CC3CC(CC(C3)C1)C2)Nc1cccc2c(=O)n(Cc3ccc(F)cc3F)ccc12 [Compound 705]
≥ 75	O=C(CC12CC3CC(CC(C3)C1)C2)Nc1cccc2c(=O)n(CC3COc4ccccc4O3)ccc12 (stereo not shown) [Compound 734]
≥ 75	CC12CC3CC(C)(C1)CC(CC(=O)Nc1cccc4c(=O)n(Cc5ccccn5)ccc14)(C3)C2 [Compound 744]
≥ 75	Cc1nn(C)c(C)c1Cn1ccc2c(NC(=O)CC34CC5CC(CC(C5)C3)C4)cccc2c1=O [Compound 718]
≥ 75	O=C(CC12CC3CC(CC(C3)C1)C2)Nc1cccc2c(=O)n(C[C@@H]3CCCO3)ccc12 [Compound 739]
≥ 75	O=C(CC12CC3CC(CC(C3)C1)C2)Nc1cccc2c(=O)n(Cc3c(F)cccc3F)ccc12 [Compound 733]
≥ 75	CC(c1ccccc1)N1CCc2c(NC(=O)CC34CC5CC(CC(C5)C3)C4)cccc2C1=O (stereo not shown) [Compound 731]
